Results published in ChEMBL document CHEMBL1201862, “PubChem BioAssay data set” (2004).
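Where inhibition never reached the appropriate level, the endpoint shown equals the highest concentration tested. Otherwise, values were interpolated linearly from a five-concentration, 48-hour dose response in 96-well plates. Abbreviation: GI50, concentration required for 50% inhibition of growth.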 Calls of active or inactive are those of the source. No stated cut-off is given here; in the data, active = GI50 up to about 1.1 µM and inactive = higher.

Assays:
Assay in all cases: NCI-60 cell line screen, 48 h
SK-MEL-2 = system: SK-MEL-2
UACC-62 = system: UACC-62
MDA-N = system: MDA-N
PC-3 = system: PC-3
SNB-19 = system: SNB-19
CCRF-CEM = system: CCRF-CEM
HCT-116 = system: HCT-116
OVCAR-4 = system: OVCAR-4
OVCAR-8 = system: OVCAR-8
CAKI-1 = system: CAKI-1
SW-620 = system: SW-620
786-0 = system: 786-0
MOLT-4 = system: MOLT-4
UO-31 = system: UO-31
MCF7 = system: MCF7
KM12 = system: KM12
HL-60 = system: HL-60
MDA-MB-231 = system: MDA-MB-231
SNB-75 = system: SNB-75
UACC-257 = system: UACC-257
BT-549 = system: BT-549
HCC 2998 = system: HCC 2998
NCI-H522 = system: NCI-H522
Hs-578T = system: Hs-578T
SN12C = system: SN12C
HCT-15 = system: HCT-15
MDA-MB-435 = system: MDA-MB-435
RPMI-8226 = system: RPMI-8226
U-251 = system: U-251
SK-OV-3 = system: SK-OV-3
SF-539 = system: SF-539
IGROV-1 = system: IGROV-1
Malme-3M = system: Malme-3M
TK-10 = system: TK-10
HT-29 = system: HT-29
OVCAR-3 = system: OVCAR-3
M14 = system: M14
OVCAR-5 = system: OVCAR-5
NCI/ADR-RES = system: NCI/ADR-RES
SK-MEL-28 = system: SK-MEL-28
EKVX = system: EKVX
COLO 205 = system: COLO 205
K562 = system: K562
NCI-H23 = system: NCI-H23
NCI-H226 = system: NCI-H226
A549 = system: A549
SF-268 = system: SF-268
T47D = system: T47D
DU-145 = system: DU-145
SR = system: SR
A498 = system: A498
LOX IMVI = system: LOX IMVI
RXF 393 = system: RXF 393
NCI-H460 = system: NCI-H460
HOP-92 = system: HOP-92
ACHN = system: ACHN
SK-MEL-5 = system: SK-MEL-5
HOP-62 = system: HOP-62
SF-295 = system: SF-295

Measured: GI50

CO[C@H]1c2cccc3cccc(c23)[C@@H]1n1[nH]c(=O)n(C(C)(C)C)c1=O
> 100 µM: HCT-15
inactive: SK-MEL-2 > 100 µM | UACC-62 > 100 µM | MDA-N > 100 µM | PC-3 > 100 µM | SNB-19 > 100 µM | CCRF-CEM > 100 µM | HCT-116 > 100 µM | OVCAR-4 > 100 µM | OVCAR-8 > 100 µM | CAKI-1 > 100 µM | SW-620 > 100 µM | 786-0 > 100 µM | MOLT-4 > 100 µM | UO-31 69.8 µM | MCF7 > 100 µM | KM12 > 100 µM | HL-60 > 100 µM | MDA-MB-231 > 100 µM | SNB-75 > 100 µM | UACC-257 > 100 µM | BT-549 > 100 µM | HCC 2998 > 100 µM | NCI-H522 > 100 µM | Hs-578T > 100 µM | SN12C > 100 µM | MDA-MB-435 > 100 µM | RPMI-8226 > 100 µM | U-251 > 100 µM | SK-OV-3 > 100 µM | SF-539 > 100 µM | IGROV-1 > 100 µM | Malme-3M > 100 µM | TK-10 > 100 µM | HT-29 > 100 µM | OVCAR-3 > 100 µM | M14 > 100 µM | OVCAR-5 > 100 µM | NCI/ADR-RES > 100 µM | SK-MEL-28 > 100 µM | EKVX > 100 µM | COLO 205 > 100 µM | K562 > 100 µM | NCI-H23 > 100 µM | NCI-H226 > 100 µM | A549 > 100 µM | SF-268 > 100 µM | T47D > 100 µM | DU-145 > 100 µM | SR > 100 µM | A498 > 100 µM | LOX IMVI > 100 µM | RXF 393 > 100 µM | NCI-H460 > 100 µM

N#CCCN(CCC#N)c1ccc(/C=C2\N=C(c3ccccc3)N(c3ccc(F)cc3)C2=O)cc1
> 100 µM: HCT-15
inactive: SK-MEL-2 > 100 µM | UACC-62 > 100 µM | MDA-N > 100 µM | PC-3 > 100 µM | SNB-19 > 100 µM | HCT-116 > 100 µM | OVCAR-4 > 100 µM | OVCAR-8 > 100 µM | CAKI-1 > 100 µM | SW-620 > 100 µM | 786-0 > 100 µM | MOLT-4 > 100 µM | UO-31 > 100 µM | MCF7 > 100 µM | KM12 > 100 µM | MDA-MB-231 > 100 µM | SNB-75 > 100 µM | UACC-257 > 100 µM | BT-549 > 100 µM | HOP-92 > 100 µM | ACHN > 100 µM | Hs-578T > 100 µM | SN12C > 100 µM | SK-MEL-5 > 100 µM | MDA-MB-435 > 100 µM | RPMI-8226 > 100 µM | U-251 > 100 µM | SK-OV-3 > 100 µM | SF-539 > 100 µM | IGROV-1 > 100 µM | Malme-3M > 100 µM | TK-10 > 100 µM | HT-29 > 100 µM | OVCAR-3 > 100 µM | M14 > 100 µM | OVCAR-5 > 100 µM | NCI/ADR-RES > 100 µM | SK-MEL-28 > 100 µM | EKVX > 100 µM | HOP-62 > 100 µM | COLO 205 > 100 µM | K562 > 100 µM | NCI-H226 > 100 µM | A549 > 100 µM | SF-268 > 100 µM | T47D > 100 µM | DU-145 > 100 µM | SR > 100 µM | A498 > 100 µM | LOX IMVI > 100 µM | RXF 393 > 100 µM | SF-295 > 100 µM | NCI-H460 > 100 µM

CSc1ncc2c(n1)-c1ccccc1OC2
inactive: SK-MEL-2 > 100 µM | UACC-62 78.2 µM | MDA-N 57.1 µM | PC-3 56.4 µM | SNB-19 75.9 µM | CCRF-CEM 59.2 µM | HCT-116 70.8 µM | OVCAR-4 61 µM | OVCAR-8 79.1 µM | CAKI-1 19.4 µM | SW-620 62.2 µM | 786-0 72.6 µM | MOLT-4 50 µM | UO-31 38.8 µM | MCF7 43.1 µM | KM12 > 100 µM | HL-60 38.9 µM | MDA-MB-231 16.7 µM | SNB-75 43.6 µM | UACC-257 > 100 µM | BT-549 43 µM | HOP-92 25.6 µM | NCI-H522 44.5 µM | ACHN 45.9 µM | Hs-578T 26.5 µM | SN12C 39.7 µM | SK-MEL-5 53.1 µM | MDA-MB-435 56.4 µM | RPMI-8226 > 100 µM | U-251 51.3 µM | SK-OV-3 > 100 µM | SF-539 37.7 µM | IGROV-1 34.4 µM | TK-10 45.1 µM | HT-29 40.4 µM | OVCAR-3 27.9 µM | M14 45.4 µM | OVCAR-5 > 100 µM | NCI/ADR-RES 71.3 µM | EKVX 34.3 µM | COLO 205 92.3 µM | NCI-H23 84.3 µM | NCI-H226 67 µM | A549 52.2 µM | SF-268 49.4 µM | T47D 15.9 µM | DU-145 39.4 µM | SR 61 µM | A498 13.3 µM | LOX IMVI 37.7 µM | RXF 393 41.5 µM | SF-295 94.2 µM | NCI-H460 42.9 µM
51.2 µM: HCT-15

Cc1ccc(C2=NOC(=O)[C@@H]3CCCC[C@@H]23)cc1
inactive: UACC-62 > 100 µM | MDA-N > 100 µM | PC-3 > 100 µM | SNB-19 > 100 µM | CCRF-CEM > 100 µM | HCT-116 > 100 µM | OVCAR-4 > 100 µM | OVCAR-8 > 100 µM | CAKI-1 > 100 µM | SW-620 > 100 µM | 786-0 > 100 µM | MOLT-4 > 100 µM | UO-31 > 100 µM | MCF7 > 100 µM | KM12 > 100 µM | HL-60 > 100 µM | MDA-MB-231 75.3 µM | SNB-75 > 100 µM | UACC-257 > 100 µM | BT-549 > 100 µM | HCC 2998 > 100 µM | NCI-H522 > 100 µM | ACHN > 100 µM | Hs-578T > 100 µM | SN12C > 100 µM | SK-MEL-5 > 100 µM | MDA-MB-435 > 100 µM | RPMI-8226 > 100 µM | U-251 > 100 µM | SK-OV-3 > 100 µM | SF-539 > 100 µM | IGROV-1 > 100 µM | Malme-3M > 100 µM | TK-10 > 100 µM | HT-29 > 100 µM | OVCAR-3 > 100 µM | M14 > 100 µM | OVCAR-5 > 100 µM | NCI/ADR-RES > 100 µM | SK-MEL-28 > 100 µM | EKVX > 100 µM | HOP-62 > 100 µM | COLO 205 > 100 µM | K562 > 100 µM | NCI-H23 > 100 µM | NCI-H226 > 100 µM | A549 > 10 µM | SF-268 > 100 µM | T47D 76.4 µM | DU-145 27.2 µM | SR > 100 µM | A498 > 100 µM | LOX IMVI > 100 µM | RXF 393 > 100 µM | SF-295 > 100 µM
> 100 µM: HCT-15

O=C(O)c1ccccc1NCn1c(=S)sc2ccccc21
66.5 µM: HCT-15
inactive: SK-MEL-2 > 100 µM | UACC-62 44.3 µM | MDA-N > 100 µM | PC-3 45.6 µM | SNB-19 76.7 µM | CCRF-CEM 23.4 µM | HCT-116 40.7 µM | OVCAR-4 56 µM | OVCAR-8 > 100 µM | CAKI-1 > 100 µM | SW-620 36 µM | 786-0 54.3 µM | MOLT-4 35.1 µM | UO-31 51.2 µM | MCF7 22.4 µM | KM12 63 µM | HL-60 19.6 µM | MDA-MB-231 51.8 µM | SNB-75 > 100 µM | UACC-257 31.8 µM | BT-549 > 100 µM | HOP-92 > 100 µM | NCI-H522 27 µM | ACHN 35.6 µM | Hs-578T > 100 µM | SN12C 35.1 µM | MDA-MB-435 83 µM | RPMI-8226 32.3 µM | U-251 47.3 µM | SK-OV-3 > 100 µM | SF-539 18.3 µM | IGROV-1 57.4 µM | Malme-3M 35.5 µM | TK-10 94.6 µM | HT-29 59.8 µM | OVCAR-3 30.6 µM | M14 > 100 µM | OVCAR-5 > 100 µM | NCI/ADR-RES > 100 µM | SK-MEL-28 > 100 µM | EKVX > 100 µM | HOP-62 45.1 µM | COLO 205 25.7 µM | K562 > 100 µM | NCI-H23 28.2 µM | A549 68.7 µM | SF-268 45.5 µM | T47D 37.1 µM | DU-145 37.2 µM | SR 29.6 µM | A498 > 100 µM | LOX IMVI 20 µM | RXF 393 > 100 µM | SF-295 45.6 µM | NCI-H460 21.9 µM
